Like-named read-outs stand apart in the source and are kept apart here.
What was measured:
[1] = biological target: T1, Spleen tyrosine kinase (SYK) (Homo sapiens, UniProt P43405); assay: co-crystal structure at […] Å; format: biochemical
[2] = biological target: T1, Spleen tyrosine kinase (SYK); assay: co-crystal structure at […] Å; format: biochemical; remark: listed apart in the source

Row | IC50 [1] | IC50 [2] | SMILES
1 | 211 nM | – | CS(=O)(=O)c1ccc(Nc2nc(N[C@H]3CCCC[C@@H]3N)nc3cc[nH]c(=O)c23)cc1 [SKI-O-85, (1S,2S)-2-((4-((4-(methylsulfonyl)phenyl)amino)-5-oxo-5,6-dihydropyrido[4,3-d]pyrimidin-2-yl)amino)cyclohexan-1-aminium]
2 | – | 17.7 nM | Cn1ncc2cc(Nc3nc(N4CCC(O)CC4)nc4cc[nH]c(=O)c34)ccc21 [SKI-G-618, 2-(4-hydroxypiperidin-1-yl)-4-((1-methyl-1H-indazol-5-yl)amino)pyrido[4,3-d]pyrimidin-5(6H)-one]
